Key:
[1] = system: dental plaque microbes; assay: Culture of dental plaque microbes, streak applied to inoculum, 2 days incubation (FIG. 5); assay type: cell-based; details: 2 days of incubation
[2] = system: dental pulp tissue (dental pulp extraction with chronic pulpitis); assay: Live bacterial cell counting after cannabinoid treatment, dental pulp tissue; assay type: cell-based, human
Protocol: (§1) Summary: The method includes: • a. randomized sampling of oral plaque biofilm from different consumers with 0-+4 DPSI, dental pulp extraction with chronic pulpitis; • b. cultivation of the samples in incubator with 37° C., for 1 day. The colonies underwent treatment with different types of compounds CBC, CBD, CBG, CBGA, CBN for 5 minutes; • c. staining with fluorescent special dyes for live bacterial cells, following the cannabinoid compounds' treatment and using one referral without cannabinoids treatment; • d. mounting on 6 channel micro slide dishes with 0.1 high; • e. imaging with Cytetion 5 Biotek microscope on 40 magnification, analyzing and running live cell counting.
Experimental methods: FIG. 6 depicts the steps of the methodology used in this protocol. The methodology includes the following steps: • a. Sample cultivation: Samples are collected with Flexi Grip 1702 Paro interdental brush. Cultivation on AGAR Petri Dish 100/15 mm incubated for 24 hours in 37° C. • b. Compound Treatment: The colonies are treated with 25%, 12.5% dilutions from 5 different type extracts from grower A+B. 0.5 μL compound were place in each vial, 3 colony spots were added, the mixture was agitated in centrifuge with 6-8.000 rpm for 1.5 min and suspended in 500 μL PBS. • c. Staining Mounting: Staining kit Bacstain—CTC Rapid Staining kit BS02 was used. All 5 samples and 1 referral were stained. […]

[3] = system: human oral biofilms (dental plaque); assay: Live bacterial cell counting (CTC staining, Cytation 5 imaging) after cannabinoid treatment of dental plaque colonies; assay type: cell-based
Protocol: This study evaluates different extracts/compounds on different types of human oral biofilms that normally are plaque-generating, further inducing light to severe periodontal diseases, as scored by DPSI (Dutch periodontic screening index).
as §1, with “counting. […]” for “counting.”
The same procedure was employed on the second slide with the cells treated with 25% dilution of the cannabinoid of grower B. Accordingly slide 3 had the cells from grower A with 12.5% dilution and slide 4 had the cells 12.5% dilution from grower B. • d. […] Imaging modes include fluorescence, brightfield, color brightfield and phase contrast for a broad range of applications including live cell imaging, phenotypic assays, and 3D spheroids. […]

[4] = system: dental bacteria taken from various patients (oral flora); assay: In vitro determination of sensitivity of dental biofilm flora from individual patients to cannabinoid test panels; assay type: cell-based
Excerpt: Methods of the present invention are hereby exemplified. The trial included two stages: • a. Stage 1: In vitro determination of sensitivity of dental biofilm flora from individual patients to cannabinoid test panels. • b. Stage 2: Effectiveness of toothpaste compounded to individual patient's best cannabinoid panel formulations. Stage 1: In Vitro Determination of Sensitivity of Dental Biofilm Flora from Individual Patients to Cannabinoid Test Panels.
Ten (10) subjects (patients A-J) were involved in the trial. Dental biofilm was collected of these subjects by means of swabs, scrapes and other devices. The bacteria of this dental biofilm were characterized by conventional methods such as growth on selective media, microscopic examination and lab on-chip-laser analysis (e.g. Parochip).
Patient's bacteria from patients A-J were tested in vitro on substrates seeded with a panel of cannabinoids as illustrated in table 1 below:
Column Panels: • 1=CBDA; • 2=CBDA+CBNA; • 3=CBDA+CBNA+CBGA; • 4=CBDA+CBNA+CBGA+CBCA; • 5=CBDA+CBNA+CBGA+CBCA+CBNDA; • 6=Chlorohexadine control, and • 7=control with no antiseptic.
Results of in vitro testing are defined in terms of efficacy of panel cannabinoids in in vitro suppressing oral flora, in increasing scale of: • −, +, ++, +++, ++++, +++++

Structure (SMILES) | bacterial growth at streak applied to inoculum [1] | reduction from the live bacterial cells [2] [%] | most efficient compound on the plaque of the consumer ([3]; 25% dilution, grower A, FIG. 10) | reduction from the live bacterial cells ([3]; dental plaque) [%] | effectiveness against the flora (in words) ([4]; flora of patient B) | in vitro effectiveness of cannabinoids on dental bacteria ([4]; oral flora sample of patient A) | in vitro effectiveness of cannabinoids on dental bacteria ([4]; oral flora sample of patient B) | in vitro effectiveness of cannabinoids on dental bacteria ([4]; oral flora sample of patient C) | in vitro effectiveness of cannabinoids on dental bacteria ([4]; oral flora sample of patient D) | in vitro effectiveness of cannabinoids on dental bacteria ([4]; oral flora sample of patient E) | in vitro effectiveness of cannabinoids on dental bacteria ([4]; oral flora sample of patient F) | in vitro effectiveness of cannabinoids on dental bacteria ([4]; oral flora sample of patient G) | in vitro effectiveness of cannabinoids on dental bacteria ([4]; oral flora sample of patient H) | in vitro effectiveness of cannabinoids on dental bacteria ([4]; oral flora sample of patient I) | in vitro effectiveness of cannabinoids on dental bacteria ([4]; oral flora sample of patient J)
C=C(C)[C@@H]1CCC(C)=C[C@H]1c1c(O)cc(CCCCC)cc1O [CBD, Cannabidiol] | no bacterial growth | 92 |  |  |  |  |  |  |  |  |  |  |  |  | 
CCCCCc1cc(O)c(C/C=C(\C)CCC=C(C)C)c(O)c1C(=O)O [CBGA, Cannabigerolic acid] |  |  | most efficient | 95 |  |  |  |  |  |  |  |  |  |  | 
C=C(C)[C@@H]1CCC(C)=C[C@H]1c1c(O)cc(CCCCC)c(C(=O)O)c1O [Panel 1, Cannabidiolic acid] |  |  |  |  | effective | ++ | +++++ | ++++ | + | +++ | − | +++++ | ++ | − | −
[H]/N=C(\N/C(=N/[H])NCCCCCCNC(=N)NC(=N)Nc1ccc(Cl)cc1)Nc1ccc(Cl)cc1 [Panel 6, Chlorhexidine, reference compound] |  |  |  |  |  | ++ | ++ | + | ++ | − | − | +++ | + | ++ | −

Reference: patent US12198788B2, “System for detecting an intraoral disease and determining a personalized treatment scheme and method of doing same” (priority 2017, dated 2025)
